Results reported in patent US9983211B2 (priority 2007, dated 2018).

Conditions: in vivo

## N#CC(O)c1ccccc1 (stereo not shown) [mandelonitrile]
  times less toxic than sodium cyanide: approximately 18 times
